The target of one assay is T1, recombinant PKCδ (Homo sapiens, UniProt Q05655).
T1 construct: purchased Invitrogen
Kind of assay: PKC kinase activity assay (Z-lyte), PKCδ. The format is biochemical. The following applies: for PKCδ/PKCα Selectivity ratio: PKCδ versus PKCα in vitro. As to the method:
Assays were carried out using recombinant PKCδ or PKCα, (Invitrogen) and the Z-lyte Kinase Assays (Invitrogen) with a “PKC-kinase-specific” peptide substrate. FRET interactions produce a change in fluorescence (ex455/ex520) upon phosphorylation. The kit was used according to the manufacturer’s instructions.

For the next assay, the system named is Panc1. Kind of assay: Tumor spheroid growth, Panc1 pancreatic cancer. The format is cell-based, human. The following applies: p < 0.001.
Assay [1] has as its system MCF 10C cells. Kind of assay: Cell proliferation (MTT) of transformed breast epithelial cells. The following applies: for IC50: Homo sapiens, Epithelial cell, 72 hr, read-out: IC50 for the MCF 10C derivative; for concentration with significant effect on MCF 10C cells: as early as 24 hr. Type of assay: cell-based, human. As for the experimental part:
Cell proliferation was assessed using an MTT [3-(4,5-dimethylthiazol-2-yl)-2,5-diphenyltetrazolium bromide] assay (Roche, Mannheim, Germany). The number of viable cells growing in a single well on a 96-well microtiter plate was estimated by adding 10 μl of MTT solution (5 mg/ml in phosphate-buffered saline [PBS]). After 4 h of incubation at 37°C, the stain was diluted with 100 μl of dimethyl sulfoxide. The optical densities were quantified at a test wavelength of 570 nm and a reference wavelength of 690 nm on a multiwell spectrophotometer. In some assays, MTS was used as substrate (Promega, Madison, WI), and the absorbance of the product was monitored at 490 nm. Cell enumeration was carried out using a hemocytometer, and viable cells identified by trypan blue exclusion.
Figure 5 Effects of PKCδ inhibitors on growth and spheroid formation in non-transformed and transformed human breast epithelial cells. MCF 10A cells and cells from the derived tumorigenic line MCF 10C (also called M3), were grown to 80% confluence in 96-well plates and then exposed to rottlerin at concentrations ranging from 1 to 20 μM (A) or to BJE6-106 at concentrations ranging from 0.1 to 20 μM (B). The corresponding equivalent volume of solvent (DMSO) was used as a vehicle control (Vehicle). After 24, 48 and 72 hr of exposure, cell mass was evaluated by MTT assay. Control (vehicle) values were normalized to 100%. Error bars represent SEM. p values for comparison between vehicle and PKCδ inhibitors on MCF 10A cell number only reached significance (p < 0.05) at 48 hr at 20 μM for rottlerin, and at 1 μM for BJE6-106. In contrast, significant effects of the inhibitors on the MCF 10C cells were observed as early as 24 hr for rottlerin (at 5 μM) and for BJE6-106 (at 0.1 μM). (C) MCF 10A and MCF 10C cells were plated at 10,000 cells per well in tumor spheroid media, and spheroid formation was assessed at days 10 and 21. Representative photographs are shown. (D) MCF 10C cells were plated at 10,000 cells per well in tumor spheroid media, in the presence of rottlerin (5 μM), or BJE6-106 (1 μM or 5 μM), or DMSO vehicle (Control). Tumor spheroids were enumerated at 10 days. Representative photographs are shown. (E) Spheroid numbers were normalized to the number of spheroids in the control cultures (assigned an arbitrary value of 100%) and plotted. Error bars represent SEM. p values for comparison between vehicle and rottlerin or BJE6-106 effects on spheroid number were significant (p < 0.001).

The subject of assay [2] is MCF 10C cells. Kind of assay: Tumor spheroid formation, MCF 10C. The following applies: spheroids enumerated at 10 days. Type of assay: cell-based, human. As for the experimental part: Tumor self-renewing and anchorage-independent spheroids were obtained by culturing breast cancer cells MCF7, Hs587T and MDA231; melanoma cells SBcl2 and FM6; human breast cancer stem cells and pancreatic cancer stem cells in stem cell-selective conditions according to the manufacturer’s instructions (StemCell Technologies, Tukwila, WA). Briefly, cancer and cancer stem cells were propagated in 6-well ultra-low adherent plates (Corning) in Complete MammoCult Medium (Human) by adding 50 mL of MammoCult Proliferation Supplements to 450 mL of MammoCult Basal Medium (StemCell Technologies). The following were added to obtain Complete MammoCult Medium: 4 ug/mL Heparin (StemCell Technologies), 0.48 μg/mL hydrocortisone (StemCell Technologies), 200 U penicillin/ml; and 200 μg streptomycin/ml (Invitrogen).
Figure 5 Effects of PKCδ inhibitors on growth and spheroid formation in non-transformed and transformed human breast epithelial cells. […] After 24, 48 and 72 hr of exposure, cell mass was evaluated by MTT assay. […] (C) MCF 10A and MCF 10C cells were plated at 10,000 cells per well in tumor spheroid media, and spheroid formation was assessed at days 10 and 21. […]

The mark [3] stands for this setting: in vitro kinase assay, read-out: PKCδ IC50.

“And” between values parts separate entries of the source, which are not always exact repeats. Equal values may be shown once. Read-outs that look alike come from different tables or passages of the source.

T1 sequence (Q05655 whole entry): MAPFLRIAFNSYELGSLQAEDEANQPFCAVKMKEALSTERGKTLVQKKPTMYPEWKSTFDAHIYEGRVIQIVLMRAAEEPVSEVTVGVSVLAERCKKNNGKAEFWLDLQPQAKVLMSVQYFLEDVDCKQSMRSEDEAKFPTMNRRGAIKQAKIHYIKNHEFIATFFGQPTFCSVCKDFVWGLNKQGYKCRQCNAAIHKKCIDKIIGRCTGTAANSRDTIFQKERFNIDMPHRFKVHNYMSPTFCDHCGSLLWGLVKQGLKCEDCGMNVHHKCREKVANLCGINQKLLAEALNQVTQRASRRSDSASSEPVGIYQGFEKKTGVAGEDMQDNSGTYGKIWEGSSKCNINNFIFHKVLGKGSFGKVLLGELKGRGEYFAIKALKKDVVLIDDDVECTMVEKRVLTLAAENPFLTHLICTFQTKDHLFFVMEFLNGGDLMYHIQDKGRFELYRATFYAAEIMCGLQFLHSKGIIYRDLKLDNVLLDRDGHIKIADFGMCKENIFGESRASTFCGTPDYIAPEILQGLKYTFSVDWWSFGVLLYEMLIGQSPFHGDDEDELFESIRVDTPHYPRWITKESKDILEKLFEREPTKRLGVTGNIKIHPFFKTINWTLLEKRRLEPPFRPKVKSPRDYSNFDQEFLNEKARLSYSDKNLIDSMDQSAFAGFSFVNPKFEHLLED

Consider `CC1(C)C=Cc2cc(CCn3c4ccccc4c4ccccc43)cc(C=O)c2O1` [BJE6-106, 6-(2-(9H-carbazol-9-yl)ethyl)-2,2-dimethyl-2H-chromene-8-carbaldehyde], for which the “PKCδ/PKCα Selectivity ratio” value at recombinant PKCδ is given as “approximately 1000 fold”; on recombinant PKCδ (listed as 3), 1000-fold. For the same compound, the IC50 on recombinant PKCδ (setting [3]) is ~50 nM and 50 nM; in the assay on MCF 10C cells [1], approximately 100 nM. The “inhibition of tumor spheroid growth, Panc1” value with Panc1 (BJE6-106 at 0.5-1.0 μM) is more than 99%. In the assay with MCF 10C cells [1], the “concentration with significant effect on MCF 10C cells” value was found to be 0.1 µM. The “effect on growth of MCF 10C spheroids” value in the assay on MCF 10C cells [2] (BJE6-106 at 1 μM) was “efficiently inhibited”.
As for `CC(=O)c1c(O)c(C)c(O)c(Cc2c(O)c3c(c(C(=O)/C=C/c4ccccc4)c2O)OC(C)(C)C=C3)c1O` [rottlerin, Rottlerin, reference compound], the IC50 is approximately 5000 nM on recombinant PKCδ (PKCδ IC50, in vitro kinase assay); 3000 nM on recombinant PKCδ (setting [3]); approximately 1000 nM in the assay with MCF 10C cells [1]. The compound also had an inhibition at 10 µM in the assay with Panc1 (Homo sapiens, PANC-1, rottlerin at 10 μM) of more than 99%. Further, the “concentration with significant effect on MCF 10C cells” value with MCF 10C cells [1] is 5 µM. Moreover, the “effect on growth of MCF 10C spheroids” value in the assay with MCF 10C cells [2] (rottlerin at 10 μM) is reported as “efficiently inhibited”.

The record behind these values is paper PMC3927586, “Protein kinase C-delta inactivation inhibits the proliferation and survival of cancer stem cells in culture and in vivo” (BMC Cancer, 2014).
